One series deals with NRF2. Put plainly: qPCR analysis of NRF2-regulated genes. Type of series: cell-based, human. The following applies: for fold induction at 10 µM: Homo sapiens; for Potential NRF2 Activation (>=2 target genes induced, by >=1.5-fold): Assay 13(p). The method in brief: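 WI-38 cells treated with compound at 10 μM for 24 hrs, then processed by Cells-to-Ct for RNA isolation, RT and qPCR of NRF2-regulated genes (HMOX1, NQO1, GCLC, GSTM1). Expression normalized to B2M, PPIA and GAPDH; siRNA knockdown of FOXO3 or NRF2 (10 nM) preceded treatment in some runs.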
A general note: In qPCR the cycle at which signal appears reflects the starting amount.

A short description of the next series: in vitro. Type of series: cell-based, human. The following applies: human.
The next series has as its system human protein targets. Conditions: PubChem database queries; cited from earlier work.
A further series has as its target T1, SENP8 (Homo sapiens, UniProt Q96LD8).
T1 sequence (Q96LD8 1-212): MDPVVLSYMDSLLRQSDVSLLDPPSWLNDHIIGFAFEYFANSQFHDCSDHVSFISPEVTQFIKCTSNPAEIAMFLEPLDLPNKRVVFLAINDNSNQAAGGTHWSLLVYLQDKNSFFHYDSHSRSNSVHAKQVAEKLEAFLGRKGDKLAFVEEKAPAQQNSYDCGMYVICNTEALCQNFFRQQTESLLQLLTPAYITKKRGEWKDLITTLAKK
Conditions: Gr-1F: 3 screens, 10.0 μM to 12. μM; O13: 1 screen, 20. μM; cited from earlier work.

Series [1] deals with HTB-178 lung tumor cells (EGFR+, PIK3CA+, RB1−, TP53−). Put plainly: Killing effects on HTB-178 tumor cells. It is filed as cell-based, human. The following applies: Assay 1(y); at 10 uM, 1st.
The mark [2] stands for this setting: 24 h, Assay 12(o), at 10 uM, qPCR, read-out: Induction of NRF2-regulated genes: GCLC normalized fold-change.
Setting [3] is: 24 h, Assay 12(o), at 10 uM, qPCR, read-out: Induction of NRF2-regulated genes: GSTM1 normalized fold-change.
The mark [4] stands for this setting: 24 h, Assay 12(o), at 10 uM, qPCR, read-out: Induction of NRF2-regulated genes: HMOX1 normalized fold-change.
Where [5] appears, read: rounded fold change, WI-38 cells, 10 μM, 24 hrs, read-out: Summary of effects on NRF2-regulated genes: GCLC.
[6] abbreviates: 10 μM, 24 hrs, WI-38 cells, qPCR, normalized to B2M, n = 4, read-out: GCLC expression, normalized fold change (NRF2-regulated gene).
Where [7] appears, read: WI-38 cells, 10 μM, 24 hrs, n=4, qPCR normalized by B2M, read-out: GCLC Normalized fold change.
Setting [8] is: WI-38 cells, 10 μM, 24 hrs, n=4, qPCR normalized by B2M, read-out: GSTM1 Normalized fold change.
Setting [9] is: WI-38 cells, 10 μM, 24 hrs, n=4, qPCR normalized by B2M, read-out: HMOX1 Normalized fold change.
Setting [10] is: WI-38 cells, 10 μM, 24 hrs, n=4, qPCR normalized by B2M, read-out: NQO1 Normalized fold change.
Setting [11] is: rounded fold change, WI-38 cells, 10 μM, 24 hrs (RP11 for Gr-1D, RP29 for Gr-4D), read-out: Summary of effects on NRF2-regulated genes: HMOX1.
[12] abbreviates: rounded fold change, WI-38 cells, 10 μM, 24 hrs (RP29 for Gr-4D), read-out: Summary of effects on NRF2-regulated genes: GSTM1.
Setting [13] is: 10 μM, 24 hrs, WI-38, read-out: Expression of at least two NRF2 target genes.
[14] abbreviates: 10 μM, 24 hrs, WI-38 cells, qPCR, normalized to B2M, n = 4, read-out: GSTM1 expression, normalized fold change (NRF2-regulated gene).
Where [15] appears, read: 10 μM, 24 hrs, WI-38 cells, qPCR, normalized to B2M, n = 4, read-out: HMOX1 expression, normalized fold change (NRF2-regulated gene).
The mark [16] stands for this setting: 24 h, Assay 12(o), at 10 uM, qPCR, read-out: Induction of NRF2-regulated genes: NQO1 normalized fold-change.
The mark [17] stands for this setting: rounded fold change, WI-38 cells, 10 μM, 24 hrs (RP29 for Gr-4D), read-out: Summary of effects on NRF2-regulated genes: NQO1.
Setting [18] is: 10 μM, 24 hrs, WI-38 cells, qPCR, normalized to B2M, n = 4, read-out: NQO1 expression, normalized fold change (NRF2-regulated gene).

Entries after “also recorded” stand apart in the source; their conditions may differ. Where two headings read alike, the source gives them in different places.

In the case of `Cc1ccc(NC(=O)c2ccc([N+](=O)[O-])o2)cc1C` [Gr-1F], the “F = Potential NRF2 Activation” value in the series with NRF2 (2-point score) and with NRF2 (summary score) was 0 throughout. Further, the fold induction at 10 µM came out at 1.35 with NRF2 (setting [2]); 1.28 with NRF2 (setting [3]); 0.82 in the series on NRF2 (setting [4]); 1.62 with NRF2 (setting [5]); 1.62 with NRF2 (setting [6]); 1.62 in the series on NRF2 (setting [7]). For the same compound, the results for the fold induction at 10 µM in the series on NRF2 (setting [8]), in the series with NRF2 (setting [9]) and in the series on NRF2 (setting [10]) were 1.72, 1.09 and 1.11, respectively. This compound also yielded a cytotoxicity at 24 h, 10 uM in “in vitro” of 50%. Moreover, the “Potential targets: human protein targets (confirmed)” value (from here on “Potential targets”) with human protein targets was “CASP3, CFTR, GMNN, IDH1, IL1B, JAK2, SENP6, SENP7, SENP8, STAT1, and TDP1”. In addition, the SENP8 inhibition on SENP8 is on record as 60%-80%.
As to `O=C(NCc1cccnc1)/C(=C/c1ccc(-c2ccc(Cl)cc2)o1)S(=O)(=O)c1ccccc1` [Gr-7C], the “F = Potential NRF2 Activation” value with NRF2 (2-point score) and in the series on NRF2 (summary score) was 2 in each case. Further, the “Potential NRF2 Activation (>=2 target genes induced, by >=1.5-fold)” value with NRF2 was “YES”. Moreover, the fold induction at 10 µM is 2.27 in the series with NRF2 (setting [2]); 0.78 in the series on NRF2 (setting [3]); 28.1 with NRF2 (setting [4]); 28.1 with NRF2 (setting [11]); 0.78 in the series on NRF2 (setting [12]); 2.27 in the series with NRF2 (setting [5]). In addition, the fold induction at 10 µM with NRF2 (setting [13]) was above 1.5; in the series on NRF2 (setting [6]), 2.27; in the series on NRF2 (setting [14]), 0.78; with NRF2 (setting [15]), 28.1; in the series on NRF2 (setting [7]), 2.27; in the series with NRF2 (setting [8]), 0.784. The results for the fold induction at 10 µM in the series with NRF2 (setting [9]) and in the series on NRF2 (setting [10]) were 28 and 0.811, respectively. The cytotoxicity at 24 h, 10 uM in the series “in vitro” worked out at 60%. For the same compound, in the series with human protein targets, the “Potential targets” value was “ABHD5, ADRB2, ATXN2, BARD1, BRCA1, CFTR, CHRM4, CYP2C19,; also recorded: EPAS1, GMNN, GPR183, HIF1A, HNF4A, IDH1, IL1B, KCNJ1, MDM2,; also recorded: MDM4, MITF, NCOA1, NCOA2, NCOA3, NFE2L2, NOD1, NOD2, NOD2,; also recorded: NPBWR1, NPSR1, NPY1R, NPY2R, NR2E3, NR2F2, NR5A1, NR5A2, PLIN5,; also recorded: RIPK2, S1PR1, S1PR2, TDP1, TNF, VDR”.
With `O=C(c1ccc([N+](=O)[O-])o1)N1CCc2ccccc21` [O13], the “F = Potential NRF2 Activation” value in the series with NRF2 (2-point score) and in the series with NRF2 (summary score) was 2 throughout. For the same compound, in the series on NRF2, the “Potential NRF2 Activation (>=2 target genes induced, by >=1.5-fold)” value is reported as “YES”. The fold induction at 10 µM in the series with NRF2 (setting [2]) worked out at 1.99; in the series on NRF2 (setting [3]), 1.31; with NRF2 (setting [4]), 5.52; in the series on NRF2 (setting [16]), 2.95; in the series on NRF2 (setting [11]) it was 5.52; in the series with NRF2 (setting [12]), 1.31. Moreover, the fold induction at 10 µM in the series on NRF2 (setting [17]) was 2.95; in the series with NRF2 (setting [5]) it was 1.99; with NRF2 (setting [13]), above 1.5; with NRF2 (setting [6]), 1.99; with NRF2 (setting [14]) it was 1.31; in the series with NRF2 (setting [15]), 5.52. For the same compound, the fold induction at 10 µM in the series with NRF2 (setting [18]) is 2.95; with NRF2 (setting [7]) it was 1.99; in the series on NRF2 (setting [8]), 1.31; in the series with NRF2 (setting [9]) it was 5.52; in the series on NRF2 (setting [10]), 2.95. The “Potential killing effects on HTB-178 tumor cells, 1st” value in series [1] is “YES;”. In addition, the “Potential targets” value with human protein targets was “CASP3, DRD2, GMNN, HCRTR1, NR5A1, NR5A2, SENP6, SENP8, SSP1, and TDP1”. Moreover, the SENP8 inhibition at SENP8 was around 50%.
With `COc1cccc(/C=C2\CN(C)C/C(=C\c3cccc(OC)c3OC)C2=O)c1OC` [O23], the “F = Potential NRF2 Activation” value in the series on NRF2 (2-point score) and in the series on NRF2 (summary score) was 0 each time. Further, the fold induction at 10 µM is 0.67 in the series on NRF2 (setting [2]); 0.6 with NRF2 (setting [3]); 12.9 with NRF2 (setting [4]); 0.48 in the series on NRF2 (setting [16]); 12.9 in the series with NRF2 (setting [11]); 0.6 in the series with NRF2 (setting [12]). For the same compound, the fold induction at 10 µM worked out at 0.48 with NRF2 (setting [17]); 0.67 with NRF2 (setting [5]); 0.67 with NRF2 (setting [6]); 0.6 in the series with NRF2 (setting [14]); 12.9 with NRF2 (setting [15]); 0.48 in the series with NRF2 (setting [18]). Also, the fold induction at 10 µM in the series with NRF2 (setting [7]) amounted to 0.668; with NRF2 (setting [8]), 0.595; in the series with NRF2 (setting [9]), 12.9; in the series on NRF2 (setting [10]), 0.477. In the series “in vitro”, this compound registered a cytotoxicity at 24 h, 10 uM of 40%. Besides, the “Potential killing effects on HTB-178 tumor cells, 1st” value in series [1] is “YES;”.

Source of the values: US11413278B2, “Compounds and methods for promoting stress resistance” (priority 2015, dated 2022).
